Common to all, as to experiment: DTP human tumour cell line panel, 48 h
The subject of assay [1] is CAKI-1 renal.
The test system of assay [2] is HCC-2998 colon.
The subject of assay [3] is HL-60(TB) leukemia.
In assay [4] the test system is NCI-H226 lung.
Assay [5] has as its system NCI-H522 lung.
Assay [6] deals with OVCAR-5 ovarian.
In assay [7] the test system is SF-268 CNS.
The subject of assay [8] is SF-539 CNS.
In assay [9] the test system is SR leukemia.
Assay [10] has as its system SW-620 colon.

“And” between values parts separate entries of the source, which are not always exact repeats. Identical values can stand only once.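 Five compound concentrations were applied to cells in 96-well plates for 48 hours; endpoints were derived by simple linear interpolation of the resulting dose-response curve. At the GI50, growth is halved. TGI: total growth inhibition.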

Take `CCNC(=O)c1noc(-c2cc(C(C)C)c(O)cc2O)c1-c1ccc(CN2CCOCC2)cc1`: the 50% growth inhibitory concentration (GI50) in assay [1] is 0.059 µM; in assay [2], 0.0267 µM; in [3] it was 0.024 µM; in [4], 0.0409 µM; in assay [5] it was 0.0333 µM; in assay [6], 0.0631 µM. For the same compound, the GI50 was 2.44 µM in assay [7], 0.0662 µM in assay [8], 0.0407 µM in [9] and less than 0.01 µM in [10]. In addition, the total growth inhibition concentration (TGI) in assay [1] is greater than 100 µM; in assay [2], 1.05 µM; in assay [3], 1.17 µM; in assay [4], 26.6 µM; in assay [5] it was 13.6 µM; in assay [6], 29.3 µM. For the same compound, the TGI was found to be 34.9 µM in [7], 26.3 µM in assay [8], 29 µM in assay [9] and 23.9 µM in [10].
For the compound `COC(=O)C1(O)CC(=O)CCC1c1ccc(OC)cc1` (centres undefined), the TGI in assay [1], in [2], in assay [3], in assay [4], in assay [5] and in [6] was greater than 100 µM throughout. The concentration for total growth inhibition (TGI) in [7], in [8], in [9] and in [10] was greater than 100 µM throughout.
On to `O=c1c(F)cn(Cc2ccccc2CCl)c(=O)n1Cc1ccccc1CCl`, for which the GI50 was 1.71 µM in assay [1]; 2.09 µM in [2]; 1.51 µM in [3]; 0.539 µM in assay [4]; 1.45 µM in [5]; 5.07 µM in assay [6]. The GI50 was 2.04 µM in assay [7], 2.06 µM in assay [8], 0.796 µM in assay [9] and 1.45 µM in [10]. In addition, the TGI was 3.58 µM in [1]; 4.47 µM in [2]; 3.63 µM in assay [3]; 2.71 µM in assay [4]; 3.01 µM in assay [5]; 11 µM in [6]. For the same compound, the TGI was 4.81 µM in [7], 4.73 µM in [8], 3.07 µM in assay [9] and 3.73 µM in assay [10].
For the compound `C=C1C(=O)O[C@H]2[C@H]1CC/C(COC(=O)NCC(C)c1ccc(CC(C)C)cc1)=C\CC[C@@]1(C)O[C@@H]21` (some centres undefined), the GI50 in [1] is 2.32 µM; in [2], 2.17 µM; in assay [3], 0.786 µM; in assay [4], 1.05 µM; in assay [5], 0.661 µM; in assay [6], 3.56 µM. Further, the GI50 in [7] was 1.82 µM; in [8], 3.71 µM; in assay [9] it was 0.678 µM; in assay [10], 0.751 µM. In addition, the TGI in assay [1] came out at 6.68 µM; in assay [2] it was 6.72 µM; in [3] it was 2.83 µM; in [4] it was 4.59 µM; in assay [5] it was 1.77 µM; in [6], 7.73 µM. Further, the TGI in [7] was 6.59 µM; in assay [8], 7.71 µM; in assay [9], 3.6 µM; in [10] it was 1.79 µM.
On to `CC(C)(C)c1cc(C=C(C#N)C#N)cc(C(C)(C)C)c1O`, for which the TGI in [2] was 18.4 µM; in assay [3], 2.48 µM; in assay [4], 1.51 µM and 14.8 µM; in [5], 2.86 µM and 1.61 µM; in assay [7] it was greater than 241 µM; in assay [8] it was 10.2 µM and 3.24 µM. The total growth inhibition concentration (TGI) in [9] was 12.6 µM and 11 µM; in assay [10] it was 30.9 µM and 45.4 µM. Further, the 50% growth inhibitory concentration (GI50) was 0.371 µM in assay [4]; 0.219 µM in assay [5]; 0.402 µM in [6]; 0.475 µM in [7]; 0.376 µM in assay [8]; 0.318 µM in assay [9]. Moreover, in assay [10], the GI50 was 0.462 µM.
With `C/C(=N/NC(=O)C[N+](C)(C)C)C(CN(C)C)C(=O)Nc1ccccc1` (centres undefined), the concentration for total growth inhibition (TGI) in assay [1], in [2], in [3], in assay [4], in assay [5] and in [6] was greater than 100 µM throughout. The concentration for total growth inhibition (TGI) in [7], in assay [8], in assay [9] and in assay [10] was greater than 100 µM in each case.
Turning to `Cc1cc(I)cc(CN(C)CCCN2CCCC2)c1O`, the GI50 in assay [1] is 16.2 µM; in assay [2], 19.1 µM; in assay [3] it was 13.4 µM; in assay [4] it was 30.7 µM; in [5], 20.7 µM; in assay [6] it was 27.8 µM. Moreover, the GI50 is 17.2 µM in assay [7], 15.3 µM in [8], 7.52 µM in assay [9] and 15.9 µM in assay [10]. Also, the concentration for total growth inhibition (TGI) is 32.2 µM in [1]; 35.6 µM in [2]; 31.3 µM in assay [3]; greater than 100 µM in [4]; 45.9 µM in assay [5]; greater than 94.7 µM in assay [6]. Also, the TGI is 49.2 µM in [7], 31 µM in [8], 36.6 µM in assay [9] and 35.4 µM in assay [10].
Regarding `CCOC(=O)C1SC(=Nc2ccc(Cl)cc2)N=C1C` (centres undefined), the TGI in [2] turned out to be 31.5 µM; in assay [3], 55.9 µM; in assay [4] it was 41.9 µM; in [5], 33 µM; in assay [6], 39.3 µM; in assay [7], 34 µM. In addition, the TGI in [8] was 33 µM; in assay [9], […]; in assay [10], 35.2 µM.
For the compound `COc1ccc(/C(=N\NC(=S)NN)C(c2ccc(OC)cc2)C2C(=O)Oc3ccccc32)cc1` (centres undefined), the TGI in assay [2], in assay [3], in assay [4], in assay [5], in assay [6] and in assay [7] was greater than 100 µM each time. For the same compound, the TGI in [8], in [9] and in [10] was greater than 100 µM each time. The GI50 in assay [3], in assay [4], in assay [6], in assay [7], in assay [8] and in [10] was greater than 100 µM throughout.

The record behind these values is PubChem BioAssay (NCI).
